Several values for one entry are separate records, joined by “and”; a condition that tells them apart may be missing. Equal values may be shown once.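 How tested: cells in 96-well plates exposed to compound for 48 hours at five concentrations. Here, GI50 denotes the concentration required for 50% inhibition of growth. TGI denotes the concentration required for complete inhibition of growth.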
What was measured:
Test in all cases: NCI tumour cell line growth inhibition, 48 h
DLD-1 colon = system: DLD-1 colon
DMS 114 small cell lung = system: DMS 114 small cell lung
DMS 273 small cell lung = system: DMS 273 small cell lung
SNB-78 CNS = system: SNB-78 CNS
LXFL 529 NSCLC = system: LXFL 529 NSCLC
XF 498 CNS = system: XF 498 CNS
KM20L2 colon = system: KM20L2 colon
HOP-18 NSCLC = system: HOP-18 NSCLC
SN12K1 renal = system: SN12K1 renal
P388/ADR leukemia = system: P388/ADR leukemia
P388 leukemia = system: P388 leukemia
RXF-631 renal = system: RXF-631 renal

| Compound | TGI (DLD-1 colon) | TGI (DMS 114 small cell lung) | TGI (DMS 273 small cell lung) | TGI (SNB-78 CNS) | TGI (LXFL 529 NSCLC) | TGI (XF 498 CNS) | TGI (KM20L2 colon) | TGI (HOP-18 NSCLC) | TGI (SN12K1 renal) | TGI (P388/ADR leukemia) | TGI (P388 leukemia) | TGI (RXF-631 renal) | GI50 (DLD-1 colon) | GI50 (DMS 114 small cell lung) | GI50 (DMS 273 small cell lung) | GI50 (SNB-78 CNS) | GI50 (HOP-18 NSCLC) | GI50 (RXF-631 renal) | GI50 (KM20L2 colon) |
| --- | --- | --- | --- | --- | --- | --- | --- | --- | --- | --- | --- | --- | --- | --- | --- | --- | --- | --- | --- |
| NS(=O)(=O)C1CCCCC1C(=O)NNC(=O)C(=O)Nc1nc(=S)[nH][nH]1 (stereo not drawn) | > 100 µM | > 100 µM | > 100 µM | > 100 µM | > 100 µM | > 100 µM | > 100 µM |  |  |  |  |  |  |  |  |  |  |  |  |
| NS(=O)(=O)c1cc2c(cc1Cl)NC(C(=O)NNC(=O)c1ccncc1)=NS2(=O)=O | > 100 µM | > 100 µM | > 100 µM |  | > 100 µM | > 100 µM | > 100 µM | > 100 µM |  |  |  |  |  |  |  |  |  |  |  |
| Cc1ccc(C)c(C(=O)CC2OC(O)C(Cl)C2Cl)c1 (stereo not drawn) | 34.4 µM | > 100 µM | > 100 µM | > 100 µM | 32.5 µM | > 100 µM | > 100 µM | > 100 µM |  |  |  |  |  |  |  |  |  |  |  |
| O=[N+]([O-])c1cccc2c1[nH]c1c(-c3ccccc3)nccc12 | > 48.9 µM | 5.75 µM | 7.58 µM |  |  | 11.7 µM | 10.8 µM | 2.82 µM | 8.11 µM | 11.7 µM | 9.75 µM |  |  |  |  |  |  |  |  |
| COc1ccc(Sc2ccccc2[N+](=O)[O-])cc1 | > 100 µM |  | > 100 µM | 98.4 µM | > 100 µM |  |  | > 100 µM |  |  |  | > 100 µM |  |  |  |  |  |  |  |
| COC1=C(C)C(=O)C2=C(C1=O)C1C3CC4=C(C(=O)C(OC)=C(C)C4=O)C(CNC(=O)C(C)=O)N3C(C#N)C(C2)N1C (stereo not drawn) | 0.278 µM |  |  |  |  |  | 0.246 µM and 1.03 µM |  |  | 0.349 µM |  |  | 0.0404 nM | 0.0215 nM | 0.0259 nM | 0.0579 nM | 0.000212 µM | 0.000385 µM | 0.00267 µM |
| COC(=O)C1=C(C)C(=O)C2(CCCCCC2C(=O)OC)C1 (stereo not drawn) | > 100 µM | > 100 µM | > 100 µM | > 100 µM | > 100 µM |  | > 100 µM | > 100 µM |  |  |  |  |  |  |  |  |  |  |  |
| CC(=O)OCc1cc2c(s1)C(=O)c1sccc1C2=O | 0.342 µM | 0.283 µM | 0.299 µM | 28.3 µM | 1 µM |  | 5.49 µM | 0.276 µM |  |  |  |  |  |  |  |  |  |  |  |
| COC(=O)c1ccccc1NCc1cc(O)ccc1O | 43 µM |  | > 100 µM | 66.6 µM | 32.9 µM | 33.1 µM | > 100 µM | 27.6 µM |  |  |  |  |  |  |  |  |  |  |  |

— PubChem BioAssay (NCI)
